Test results: patent US9073940B2, “Tricyclic pyrazol amine derivatives” (MERCK SERONO SA, priority 2009, dated 2015)

The compounds below were run on 4 PI3K isoforms (Human recombinant GST-PI3K) (assay: PI3K scintillation proximity assay, best IC50 obtained with the four isoforms (alpha, beta, delta, gamma)). Details: best IC50 obtained with the four isoforms of PI3K; read-out: Best potency measured on the 4 PI3K isoforms.
Assay type: biochemical
An IC50 of 77 nM was found for `O=C(c1nn(C2CCN(C3CCOCC3)C2)c2c1CS(=O)(=O)c1ccccc1-2)N1CCOCC1` (stereo not drawn) [Example 300, 3-(Morpholin-4-ylcarbonyl)-1-[1-(tetrahydro-2H-pyran-4-yl)pyrrolidin-3-yl]-1,4-dihydrothiochromeno[4,3-c]pyrazole 5,5-dioxide] in this work. An IC50 of 960 nM was found for `CC(C)Cn1nc(C(=O)N2CCOCC2)c2c1-c1ccccc1S(=O)(=O)C2` [Example 50, 1-isobutyl-3-(morpholin-4-ylcarbonyl)-1,4-dihydrothiochromeno[4,3-c]pyrazole 5,5-dioxide] in this work. An IC50 of 32 nM was found for `O=C(c1nn([C@H]2CCCN(CCN3CCC(F)C3)C2)c2c1CS(=O)(=O)c1ccccc1-2)N1CCOCC1` (single isomer, unassigned) [Example 367] in this work. An IC50 of 80 nM was found for `O=C(c1nn([C@H]2CCCN(C3CCOCC3)C2)c2c1CS(=O)(=O)c1ccccc1-2)N1CCOCC1` (stereo in doubt) [Example 374, 3-(morpholin-4-ylcarbonyl)-1-[1-(tetrahydro-2H-pyran-4-yl)piperidin-3-yl]-1,4-dihydrothiochromeno[4,3-c]pyrazole 5,5-dioxide] in this work. An IC50 of 1470 nM was found for `CC(C)c1ccc(-n2nc(C(=O)N3CCOCC3)c3c2-c2ccccc2S(=O)(=O)C3)cc1` [Example 30, 1-(4-isopropylphenyl)-3-(morpholin-4-ylcarbonyl)-1,4-dihydrothiochromeno[4,3-c]pyrazole 5,5-dioxide] in this work. An IC50 of 49 nM was found for `Cc1cccc2c1S(=O)(=O)Cc1c(C(=O)N3CCOCC3)nn([C@H]3CCCN(CCN4CCOCC4)C3)c1-2` (stereo in doubt) [Example 471, 6-methyl-3-(morpholin-4-ylcarbonyl)-1-[1-(2-morpholin-4-ylethyl)piperidin-3-yl]-1,4-dihydrothiochromeno[4,3-c]pyrazole 5,5-dioxide] in this work. An IC50 of 673 nM was found for `O=C(c1nn(-c2cccc(N3CCOCC3)c2)c2c1CS(=O)(=O)c1ccccc1-2)N1CCOCC1` [Example 154, 3-(Morpholin-4-ylcarbonyl)-1-(3-morpholin-4-ylphenyl)-1,4-dihydrothiochromeno[4,3-c]pyrazole 5,5-dioxide] in this work. An IC50 of 997 nM was found for `COCc1cccc(-n2nc(C(=O)N3CCOCC3)c3c2-c2ccccc2S(=O)(=O)C3)c1` [Example 248, 1-[3-(Methoxylmethyl)phenyl]-3-(morpholin-4-ylcarbonyl)-1,4-dihydrothiochromeno[4,3-c]pyrazole 5,5-dioxide] in this work. An IC50 of 192 nM was found for `O=C(c1nn(C2CCN(CCN3CCOCC3)C2)c2c1CS(=O)(=O)c1ccccc1-2)N1CCOCC1` (stereo not drawn) [Example 275, 3-(Morpholin-4-ylcarbonyl)-1-[1-(2-morpholin-4-ylethyl)pyrrolidin-3-yl]-1,4-dihydrothiochromeno[4,3-c]pyrazole 5,5-dioxide] in this work. An IC50 of 13 nM was found for `O=C(c1nn([C@H]2CCCN(CC3CCOCC3)C2)c2c1CS(=O)(=O)c1ncccc1-2)N1CCOCC1` (single isomer, unassigned) [Example 376, 3-(morpholin-4-ylcarbonyl)-1-[1-(tetrahydro-2H-pyran-4-ylmethyl)piperidin-3-yl]1,4-dihydropyrazolo[3′,4′:4,5]thiopyrano[2,3-b]pyridine 5,5-dioxide] in this work. An IC50 of 2590 nM was found for `CCc1nc(-c2cccc(-n3nc(C(=O)N4CCOCC4)c4c3-c3ccccc3S(=O)(=O)C4)c2)no1` [Example 199, 1-[3-(5-Ethyl-1,2,4-oxadiazol-3-yl)phenyl]-3-(morpholin-4-ylcarbonyl)-1,4-dihydrothiochromeno[4,3-c]pyrazole 5,5-dioxide] in this work. An IC50 of 188 nM was found for `COCCN1CCCC(n2nc(C(=O)N3CCOCC3)c3c2-c2ccccc2S(=O)(=O)C3)C1` (stereo not drawn) [Example 133, 1-[1-(2-Methoxyethyl)piperidin-3-yl]-3-(morpholin-4-ylcarbonyl)-1,4-dihydrothiochromeno[4,3-c]pyrazole 5,5-dioxide] in this work.
